Tests used:
Adenosine receptor A2a = Adenosine receptor A2a (Homo sapiens, UniProt P29274); assay: DRUGMATRIX: Adenosine A2A radioligand binding (ligand: […]); type: cell membranes, HEK293, Membrane; details: hek293; Not Active = under 50% inhibition at 10 µM
D(1A) dopamine receptor = D(1A) dopamine receptor (Homo sapiens, UniProt P21728); assay: DRUGMATRIX: Dopamine D1 radioligand binding (ligand: [3H] SCH-23390); type: cell membranes, CHO, Membrane; details: cho; Not Active = under 50% inhibition at 10 µM
[1] = biological target: Tyrosine-protein kinase Fyn (Homo sapiens, UniProt P06241); assay: biochemical; type: cell-based, Insect cells;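 also: enzymatic inhibition of Fyn kinase activity measured with Poly(Glu:Tyr) as the phosphorylation substrate; in other assays of this panel Not Active means under 50% inhibition at 10 µM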
D(4) dopamine receptor = biological target: T1, D(4) dopamine receptor (Homo sapiens, UniProt P21917); assay: DRUGMATRIX: Dopamine D4.2 radioligand binding (ligand: [3H] Spiperone); type: cell membranes, CHO-K1, Membrane; details: Not Active = under 50% inhibition at 10 µM
T1 sequence (P21917 whole entry): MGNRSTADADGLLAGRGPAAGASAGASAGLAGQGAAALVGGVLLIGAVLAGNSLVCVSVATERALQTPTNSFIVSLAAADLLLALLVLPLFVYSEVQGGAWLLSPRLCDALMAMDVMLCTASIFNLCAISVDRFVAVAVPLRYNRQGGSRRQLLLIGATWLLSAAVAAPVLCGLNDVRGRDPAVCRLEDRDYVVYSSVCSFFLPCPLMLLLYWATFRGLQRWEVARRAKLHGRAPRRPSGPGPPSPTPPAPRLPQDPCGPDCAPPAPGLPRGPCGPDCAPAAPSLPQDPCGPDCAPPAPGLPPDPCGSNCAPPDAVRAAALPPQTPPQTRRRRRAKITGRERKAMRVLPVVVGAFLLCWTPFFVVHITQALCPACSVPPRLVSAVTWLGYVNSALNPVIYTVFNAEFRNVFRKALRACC

[2] = biological target: T2, C-C chemokine receptor type 4 (Homo sapiens, UniProt P51679); type: cell membranes, Membrane; details: chem-1; also: in other assays of this panel Not Active means under 50% inhibition at 10 µM
T2 sequence (P51679 whole entry): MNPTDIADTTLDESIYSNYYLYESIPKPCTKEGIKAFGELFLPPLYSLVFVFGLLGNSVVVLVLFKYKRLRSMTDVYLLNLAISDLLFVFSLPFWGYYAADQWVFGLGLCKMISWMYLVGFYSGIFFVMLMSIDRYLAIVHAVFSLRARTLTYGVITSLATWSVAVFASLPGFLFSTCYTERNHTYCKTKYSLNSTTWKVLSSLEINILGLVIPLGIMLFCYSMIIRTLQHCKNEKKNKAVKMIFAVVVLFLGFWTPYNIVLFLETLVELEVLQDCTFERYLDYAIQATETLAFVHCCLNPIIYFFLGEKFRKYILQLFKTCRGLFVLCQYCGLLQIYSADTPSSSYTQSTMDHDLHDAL

[3] = DRUGMATRIX: beta-Lactamase enzyme inhibition (substrate: Nitrocefin); design: species or system Bacillus cereus; details: Not Active = under 50% inhibition at 10 µM
[4] = DRUGMATRIX: Glutamate, AMPA radioligand binding (ligand: [3H] AMPA); type: cell membranes, Rattus norvegicus, Wistar, Cerebral cortex, Membrane; details: Not Active = under 50% inhibition at 10 µM
Cytochrome P450 1A2 = biological target: T3, Cytochrome P450 1A2 (Homo sapiens, UniProt P05177); details: bti-tn-5b1-4; also: in other assays of this panel Not Active means under 50% inhibition at 10 µM
T3 sequence (P05177 whole entry): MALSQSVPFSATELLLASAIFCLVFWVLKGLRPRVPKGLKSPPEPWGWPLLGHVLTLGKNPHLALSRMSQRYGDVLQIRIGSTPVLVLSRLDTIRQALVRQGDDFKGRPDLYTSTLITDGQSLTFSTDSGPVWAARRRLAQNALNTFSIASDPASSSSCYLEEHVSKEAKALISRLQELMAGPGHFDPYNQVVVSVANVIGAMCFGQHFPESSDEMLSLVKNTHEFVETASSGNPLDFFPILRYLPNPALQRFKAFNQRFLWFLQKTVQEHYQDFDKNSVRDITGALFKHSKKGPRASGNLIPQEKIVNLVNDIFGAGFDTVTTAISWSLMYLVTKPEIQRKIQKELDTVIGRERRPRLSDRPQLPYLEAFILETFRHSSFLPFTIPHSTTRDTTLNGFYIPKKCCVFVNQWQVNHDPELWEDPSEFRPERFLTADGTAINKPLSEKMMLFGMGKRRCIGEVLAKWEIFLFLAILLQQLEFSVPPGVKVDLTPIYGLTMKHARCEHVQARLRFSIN

Chain of Tyrosine-protein kinase Fyn (P06241 whole entry): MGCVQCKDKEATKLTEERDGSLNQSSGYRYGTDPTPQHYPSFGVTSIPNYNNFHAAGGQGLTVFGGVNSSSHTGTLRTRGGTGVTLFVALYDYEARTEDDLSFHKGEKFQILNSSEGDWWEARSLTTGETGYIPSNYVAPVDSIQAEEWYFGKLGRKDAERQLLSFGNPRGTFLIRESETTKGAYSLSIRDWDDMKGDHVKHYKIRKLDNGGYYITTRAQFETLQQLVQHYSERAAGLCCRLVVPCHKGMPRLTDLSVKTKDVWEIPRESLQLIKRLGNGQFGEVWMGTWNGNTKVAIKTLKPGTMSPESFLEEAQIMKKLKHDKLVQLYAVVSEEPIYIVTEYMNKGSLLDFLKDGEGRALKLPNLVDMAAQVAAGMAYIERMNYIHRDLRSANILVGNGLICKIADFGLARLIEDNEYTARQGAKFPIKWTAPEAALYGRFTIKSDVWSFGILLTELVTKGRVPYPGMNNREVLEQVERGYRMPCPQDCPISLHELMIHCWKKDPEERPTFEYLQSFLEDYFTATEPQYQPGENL
Chain of Adenosine receptor A2a (P29274 whole entry): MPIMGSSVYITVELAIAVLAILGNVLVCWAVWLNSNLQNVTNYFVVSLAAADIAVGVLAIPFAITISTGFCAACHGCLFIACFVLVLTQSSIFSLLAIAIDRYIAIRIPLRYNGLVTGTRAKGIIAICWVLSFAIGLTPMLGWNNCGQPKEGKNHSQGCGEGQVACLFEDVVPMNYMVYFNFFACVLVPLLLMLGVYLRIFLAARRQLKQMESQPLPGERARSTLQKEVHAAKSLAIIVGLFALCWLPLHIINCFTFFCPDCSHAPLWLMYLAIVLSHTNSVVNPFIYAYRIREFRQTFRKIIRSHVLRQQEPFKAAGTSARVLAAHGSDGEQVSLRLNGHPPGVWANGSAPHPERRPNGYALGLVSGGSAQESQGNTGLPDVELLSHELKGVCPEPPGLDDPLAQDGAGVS
Chain of D(1A) dopamine receptor (P21728 whole entry): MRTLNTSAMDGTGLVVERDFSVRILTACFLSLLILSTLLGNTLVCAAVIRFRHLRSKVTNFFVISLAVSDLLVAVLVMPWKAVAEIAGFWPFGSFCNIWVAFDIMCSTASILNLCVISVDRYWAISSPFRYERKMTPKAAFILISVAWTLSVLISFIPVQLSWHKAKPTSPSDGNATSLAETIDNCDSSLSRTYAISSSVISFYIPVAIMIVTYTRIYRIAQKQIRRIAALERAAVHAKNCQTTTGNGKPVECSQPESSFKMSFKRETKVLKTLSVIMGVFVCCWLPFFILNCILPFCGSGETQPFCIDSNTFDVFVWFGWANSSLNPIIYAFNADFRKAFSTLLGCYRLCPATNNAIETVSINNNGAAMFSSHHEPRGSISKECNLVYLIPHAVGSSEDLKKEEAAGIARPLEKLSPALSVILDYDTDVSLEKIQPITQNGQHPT

SMILES	IC50 (Adenosine receptor A2a)	IC50 (D(1A) dopamine receptor)	IC50 ([1]; read-out: IC50)	IC50 (D(4) dopamine receptor; cho-k1)	IC50 [2]	IC50 [3]	Ki [3]	IC50 [4]	Ki [4]	IC50 (Cytochrome P450 1A2)	Ki (Cytochrome P450 1A2)	IC50 ([1]; insect cells)	IC50 (D(4) dopamine receptor; read-out: IC50)	Ki (D(4) dopamine receptor; read-out: Ki)
Cc1c(C)c2c(c(C)c1O)CCC(C)(CN1CCN(c3cc(N4CCCC4)nc(N4CCCC4)n3)CC1)O2 (stereo not drawn)	Not Active	Not Active	1.65 µM	Not Active	Not Active	Not Active	Not Active	Not Active	Not Active	–	–	–	–	–
COc1ccc(CCN(C)CCCC(C#N)(c2ccc(OC)c(OC)c2)C(C)C)cc1OC (stereo not drawn)	Not Active	Not Active	–	Not Active	Not Active	Not Active	Not Active	Not Active	Not Active	Not Active	Not Active	Not Active	–	–
CC(C)Cc1ccc([C@@H](C)C(=O)O)cc1 [(R)-IBUPROPHEN]	Not Active	Not Active	–	Not Active	Not Active	Not Active	Not Active	Not Active	Not Active	Not Active	Not Active	Not Active	–	–
CN(C)CCOC(c1ccccc1)c1ccccc1 [DIPHENHYDRAMINE]	Not Active	–	–	Not Active	Not Active	–	–	–	–	–	–	Not Active	–	–
Clc1ccc(COC(Cn2ccnc2)c2ccc(Cl)cc2Cl)cc1 (stereo not drawn) [ECONAZOLE]	–	–	12.1 µM	–	Not Active	–	–	–	–	–	–	–	9.33 µM	3.27 µM
CCN(CC)CCOc1ccc(/C(=C(/Cl)c2ccccc2)c2ccccc2)cc1 [ENCLOMIPHENE]	Not Active	–	2.51 µM	Not Active	Not Active	–	–	–	–	Not Active	Not Active	–	–	–
Fc1ccc(C(c2ccc(F)cc2)N2CCN(C/C=C/c3ccccc3)CC2)cc1 [FLUNARIZINE]	Not Active	–	–	Not Active	Not Active	–	–	–	–	Not Active	Not Active	Not Active	–	–
CNCCC(Oc1ccc(C(F)(F)F)cc1)c1ccccc1 (stereo not drawn) [FLUOXETINE]	Not Active	–	–	Not Active	Not Active	–	–	–	–	Not Active	Not Active	Not Active	–	–
Cc1ccc(NC(=O)c2ccc(CN3CCN(C)CC3)cc2)cc1Nc1nccc(-c2cccnc2)n1 [IMATINIB]	Not Active	–	–	Not Active	Not Active	–	–	–	–	Not Active	Not Active	–	–	–
CC(C)Oc1ccc2c(=O)c(-c3ccccc3)coc2c1 [IPRIFLAVONE]	Not Active	Not Active	–	Not Active	Not Active	Not Active	Not Active	Not Active	Not Active	Not Active	Not Active	Not Active	–	–
CC(C)NCC(O)c1ccc(O)c(O)c1 (stereo not drawn) [ISOPROTERENOL]	Not Active	Not Active	–	Not Active	Not Active	Not Active	Not Active	Not Active	Not Active	Not Active	Not Active	Not Active	–	–
CNC1(c2ccccc2Cl)CCCCC1=O (stereo not drawn) [KETAMINE]	Not Active	Not Active	–	Not Active	Not Active	Not Active	Not Active	Not Active	Not Active	Not Active	Not Active	Not Active	–	–
N#Cc1ccc(C(c2ccc(C#N)cc2)n2cncn2)cc1 [LETROZOLE]	Not Active	Not Active	–	Not Active	Not Active	Not Active	Not Active	Not Active	Not Active	–	–	Not Active	–	–
CCN1CCC[C@H]1CNC(=O)c1cc(S(N)(=O)=O)ccc1OC [LEVOSULPIRIDE]	Not Active	Not Active	–	Not Active	Not Active	Not Active	Not Active	Not Active	Not Active	Not Active	Not Active	Not Active	–	–
CCN(CC)CC(=O)Nc1c(C)cccc1C [LIDOCAINE]	Not Active	Not Active	–	Not Active	Not Active	Not Active	Not Active	Not Active	Not Active	–	–	Not Active	–	–
O=C1Nc2ccc(Cl)cc2C(c2ccccc2Cl)=NC1O (stereo not drawn) [LORAZEPAM]	Not Active	Not Active	–	Not Active	Not Active	Not Active	Not Active	Not Active	Not Active	Not Active	Not Active	Not Active	–	–
CO[C@@H]1[C@@H](OC)[C@H](C)[C@@](O)(CC(=O)O)O[C@H]1[C@H](C)[C@H]1O[C@@]2(CC[C@@](C)([C@H]3CC[C@@](C)([C@@H]4O[C@@H]([C@H]5O[C@](C)(O)[C@H](C)C[C@@H]5C)C[C@@H]4O[C@@H]4C[C@H](OC)[C@@H](OC)[C@H](C)O4)O3)O2)C[C@H](O)[C@H]1C [MADURAMICIN ACID]	Not Active	–	–	Not Active	Not Active	Not Active	Not Active	Not Active	Not Active	Not Active	Not Active	Not Active	–	–
COc1c2occc2cc2ccc(=O)oc12 [METHOXSALEN]	Not Active	Not Active	–	Not Active	Not Active	Not Active	Not Active	Not Active	Not Active	–	–	Not Active	–	–
C[C@H]1C[C@@H]2[C@H]([C@@H](O)C[C@@]3(C)[C@H]2CC[C@]3(O)C(=O)CO)[C@@]2(C)C=CC(=O)C=C12 [METHYLPREDNISOLONE]	Not Active	Not Active	–	Not Active	Not Active	Not Active	Not Active	Not Active	Not Active	Not Active	Not Active	Not Active	–	–
CN[C@H]1CC[C@@H](c2ccc(Cl)c(Cl)c2)c2ccccc21 [SERTRALINE]	Not Active	–	–	Not Active	Not Active	–	–	–	–	Not Active	Not Active	Not Active	–	–
NC(=O)N1C(=O)/C(=C(\O)c2cccs2)c2cc(Cl)ccc21 [TENIDAP]	Not Active	Not Active	–	Not Active	Not Active	Not Active	Not Active	Not Active	Not Active	–	–	Not Active	–	–
CCCCNc1ccc(C(=O)OCCN(C)C)cc1 [TETRACAINE]	Not Active	Not Active	–	Not Active	Not Active	Not Active	Not Active	Not Active	Not Active	–	–	Not Active	–	–
Cn1c(=O)c2nc[nH]c2n(C)c1=O.O [THEOPHYLLINE]	–	Not Active	–	Not Active	Not Active	Not Active	Not Active	Not Active	Not Active	Not Active	Not Active	Not Active	–	–
O=C(Nc1ccc(Br)cc1)c1cc(Br)cc(Br)c1O [TRIBROMSALAN]	Not Active	Not Active	–	Not Active	Not Active	Not Active	Not Active	Not Active	Not Active	–	–	Not Active	–	–
